Consider three compounds from PMC9299122, “Terpene synthases in cucumber (Cucumis sativus) and their contribution to herbivore‐induced volatile terpenoid emission” (The New Phytologist, 2021).

Common to all, as to assay: product formation, stir-bar GC-MS, recombinant E. coli protein
Type in all cases: cell-based

Experiment [1] has as its target T1, CsTPS19 (Cucumis sativus, UniProt A0A0A0L6G4).
T1 construct: gene Csa_3G095040; full-length cDNA in pACYCDuet, E. coli BL21(DE3); cytosolic
The conditions noted are these: 30 °C, 60 min; 10 µM substrate.

Experiment [2] deals with T2, CsTPS11 (Cucumis sativus, UniProt A0A0A0LMX2).
T2 construct: gene Csa_2G299920; full-length cDNA in pACYCDuet, E. coli BL21(DE3); predicted plastid transit peptide
T2 sequence (A0A0A0LMX2 1-474): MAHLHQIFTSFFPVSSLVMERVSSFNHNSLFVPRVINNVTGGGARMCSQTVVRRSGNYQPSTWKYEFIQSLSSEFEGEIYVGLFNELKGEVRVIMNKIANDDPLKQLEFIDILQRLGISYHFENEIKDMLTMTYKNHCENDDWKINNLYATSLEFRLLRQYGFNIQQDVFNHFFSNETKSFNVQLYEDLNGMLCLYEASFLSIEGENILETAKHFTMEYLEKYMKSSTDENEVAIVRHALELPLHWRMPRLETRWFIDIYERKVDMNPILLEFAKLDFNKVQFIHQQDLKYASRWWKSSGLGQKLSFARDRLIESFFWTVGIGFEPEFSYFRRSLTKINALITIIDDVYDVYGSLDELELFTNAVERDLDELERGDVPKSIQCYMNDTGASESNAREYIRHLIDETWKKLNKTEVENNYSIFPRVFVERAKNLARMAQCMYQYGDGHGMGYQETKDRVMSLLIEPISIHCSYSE
The following applies: 30 °C, 60 min; 10 µM substrate.

For experiment [3], the target named is T3, CsTPS15 (Cucumis sativus, UniProt A0A0A0L782).
T3 construct: gene Csa_3G040850; full-length cDNA in pACYCDuet, E. coli BL21(DE3); predicted plastid transit peptide
T3 sequence (A0A0A0L782 1-568): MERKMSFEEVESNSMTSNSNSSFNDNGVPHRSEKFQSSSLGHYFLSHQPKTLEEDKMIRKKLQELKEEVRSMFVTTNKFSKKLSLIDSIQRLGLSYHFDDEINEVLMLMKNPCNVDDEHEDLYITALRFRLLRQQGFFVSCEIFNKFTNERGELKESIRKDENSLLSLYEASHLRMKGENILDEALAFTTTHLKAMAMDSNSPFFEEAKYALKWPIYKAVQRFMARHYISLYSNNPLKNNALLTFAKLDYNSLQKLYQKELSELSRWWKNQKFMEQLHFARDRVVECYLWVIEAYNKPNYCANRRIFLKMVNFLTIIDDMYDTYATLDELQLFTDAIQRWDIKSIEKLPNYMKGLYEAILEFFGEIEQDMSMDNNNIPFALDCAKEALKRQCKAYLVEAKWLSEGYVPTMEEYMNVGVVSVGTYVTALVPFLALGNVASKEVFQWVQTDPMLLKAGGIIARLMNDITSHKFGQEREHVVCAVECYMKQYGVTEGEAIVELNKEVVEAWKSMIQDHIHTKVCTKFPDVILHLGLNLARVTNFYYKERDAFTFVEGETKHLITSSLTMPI
The conditions noted are these: 30 °C, 60 min; 10 µM substrate.

Experiment [4] deals with T4, CsTPS14 (Cucumis sativus, UniProt A0A0A0L1X6).
T4 construct: gene Csa_3G039850; full-length cDNA in pACYCDuet, E. coli BL21(DE3); no targeting peptide predicted
T4 sequence (A0A0A0L1X6 1-562): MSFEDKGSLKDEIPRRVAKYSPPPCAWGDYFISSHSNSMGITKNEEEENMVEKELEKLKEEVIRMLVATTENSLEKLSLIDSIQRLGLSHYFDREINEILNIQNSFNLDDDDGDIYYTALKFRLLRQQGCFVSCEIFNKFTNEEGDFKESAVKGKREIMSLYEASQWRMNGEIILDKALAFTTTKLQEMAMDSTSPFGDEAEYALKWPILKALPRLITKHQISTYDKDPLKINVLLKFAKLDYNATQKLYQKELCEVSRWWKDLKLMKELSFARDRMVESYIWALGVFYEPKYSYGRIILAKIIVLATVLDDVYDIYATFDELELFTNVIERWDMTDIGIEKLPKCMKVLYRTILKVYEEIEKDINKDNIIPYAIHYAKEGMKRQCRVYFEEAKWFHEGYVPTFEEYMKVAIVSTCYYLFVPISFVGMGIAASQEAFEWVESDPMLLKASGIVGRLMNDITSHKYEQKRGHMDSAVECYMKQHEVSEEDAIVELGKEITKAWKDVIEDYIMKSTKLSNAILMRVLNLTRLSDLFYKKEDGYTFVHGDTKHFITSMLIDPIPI
The following applies: 30 °C, 60 min; 10 µM substrate.

For experiment [5], the target named is T5, CsTPS22 (Cucumis sativus, UniProt A0A0A0L2I8).
T5 construct: gene Csa_3G097540; full-length cDNA in pACYCDuet, E. coli BL21(DE3)
T5 sequence (A0A0A0L2I8 1-558): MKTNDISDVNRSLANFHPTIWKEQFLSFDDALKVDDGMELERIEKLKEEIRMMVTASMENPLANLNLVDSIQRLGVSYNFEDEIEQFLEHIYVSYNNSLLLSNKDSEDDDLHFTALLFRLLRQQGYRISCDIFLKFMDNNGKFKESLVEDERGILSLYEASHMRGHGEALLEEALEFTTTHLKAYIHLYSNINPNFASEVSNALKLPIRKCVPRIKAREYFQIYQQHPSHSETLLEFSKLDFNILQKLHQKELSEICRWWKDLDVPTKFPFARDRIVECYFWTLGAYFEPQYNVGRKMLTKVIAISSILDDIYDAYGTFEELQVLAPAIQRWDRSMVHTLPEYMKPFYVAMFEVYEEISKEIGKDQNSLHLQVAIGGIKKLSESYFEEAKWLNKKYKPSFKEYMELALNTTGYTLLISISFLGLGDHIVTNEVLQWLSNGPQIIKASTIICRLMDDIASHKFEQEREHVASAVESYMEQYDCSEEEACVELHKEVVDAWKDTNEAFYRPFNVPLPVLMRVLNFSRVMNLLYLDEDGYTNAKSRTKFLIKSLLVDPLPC
The conditions noted are these: 30 °C, 60 min; 10 µM substrate.

The target in experiment [6] is T6, CsTPS12 (Cucumis sativus, UniProt A0A0A0LN25).
T6 construct: gene Csa_2G427840; full-length cDNA in pACYCDuet, E. coli BL21(DE3); no targeting peptide predicted
T6 sequence (A0A0A0LN25 1-565): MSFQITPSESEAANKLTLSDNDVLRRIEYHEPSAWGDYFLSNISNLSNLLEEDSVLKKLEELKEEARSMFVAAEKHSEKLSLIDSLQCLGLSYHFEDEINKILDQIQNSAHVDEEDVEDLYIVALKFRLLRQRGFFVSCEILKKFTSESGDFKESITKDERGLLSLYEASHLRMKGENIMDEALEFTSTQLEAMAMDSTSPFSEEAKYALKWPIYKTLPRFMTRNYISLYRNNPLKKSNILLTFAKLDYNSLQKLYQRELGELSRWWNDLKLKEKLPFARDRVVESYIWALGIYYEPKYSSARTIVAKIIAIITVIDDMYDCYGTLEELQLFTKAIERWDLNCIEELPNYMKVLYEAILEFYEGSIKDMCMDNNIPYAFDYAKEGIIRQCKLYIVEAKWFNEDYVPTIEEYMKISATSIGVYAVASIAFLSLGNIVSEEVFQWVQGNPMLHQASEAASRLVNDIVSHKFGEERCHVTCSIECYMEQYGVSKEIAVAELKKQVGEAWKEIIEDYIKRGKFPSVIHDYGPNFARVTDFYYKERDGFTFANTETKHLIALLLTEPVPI
The following applies: 30 °C, 60 min; 10 µM substrate.

In experiment [7] the target is T7, CsTPS24 (Cucumis sativus, UniProt Q9FRX5).
T7 construct: gene CsKS1; full-length cDNA in pACYCDuet, E. coli BL21(DE3); gene on chromosome VII; predicted plastid transit peptide
T7 sequence (Q9FRX5 1-785): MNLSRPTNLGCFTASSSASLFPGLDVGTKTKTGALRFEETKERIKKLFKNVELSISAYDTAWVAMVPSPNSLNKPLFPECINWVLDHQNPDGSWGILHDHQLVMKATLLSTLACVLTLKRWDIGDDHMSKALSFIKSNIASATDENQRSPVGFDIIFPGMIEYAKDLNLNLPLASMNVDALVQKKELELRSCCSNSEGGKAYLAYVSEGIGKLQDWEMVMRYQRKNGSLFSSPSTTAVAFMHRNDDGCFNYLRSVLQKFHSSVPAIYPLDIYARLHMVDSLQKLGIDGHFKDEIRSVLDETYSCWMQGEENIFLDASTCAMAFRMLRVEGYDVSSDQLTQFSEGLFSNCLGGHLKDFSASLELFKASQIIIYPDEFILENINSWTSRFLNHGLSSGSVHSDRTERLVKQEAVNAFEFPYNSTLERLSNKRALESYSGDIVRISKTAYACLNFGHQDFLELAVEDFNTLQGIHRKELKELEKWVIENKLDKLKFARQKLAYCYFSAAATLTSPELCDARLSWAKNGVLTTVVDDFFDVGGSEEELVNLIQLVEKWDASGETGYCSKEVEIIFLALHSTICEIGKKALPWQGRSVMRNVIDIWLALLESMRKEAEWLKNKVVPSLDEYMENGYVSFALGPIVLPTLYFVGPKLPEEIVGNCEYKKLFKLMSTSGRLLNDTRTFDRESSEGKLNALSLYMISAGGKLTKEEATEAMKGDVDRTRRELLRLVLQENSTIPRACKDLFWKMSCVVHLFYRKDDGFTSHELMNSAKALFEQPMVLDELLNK
The conditions noted are these: 30 °C, 60 min.

T1 sequence (A0A0A0L6G4 entry or part of it): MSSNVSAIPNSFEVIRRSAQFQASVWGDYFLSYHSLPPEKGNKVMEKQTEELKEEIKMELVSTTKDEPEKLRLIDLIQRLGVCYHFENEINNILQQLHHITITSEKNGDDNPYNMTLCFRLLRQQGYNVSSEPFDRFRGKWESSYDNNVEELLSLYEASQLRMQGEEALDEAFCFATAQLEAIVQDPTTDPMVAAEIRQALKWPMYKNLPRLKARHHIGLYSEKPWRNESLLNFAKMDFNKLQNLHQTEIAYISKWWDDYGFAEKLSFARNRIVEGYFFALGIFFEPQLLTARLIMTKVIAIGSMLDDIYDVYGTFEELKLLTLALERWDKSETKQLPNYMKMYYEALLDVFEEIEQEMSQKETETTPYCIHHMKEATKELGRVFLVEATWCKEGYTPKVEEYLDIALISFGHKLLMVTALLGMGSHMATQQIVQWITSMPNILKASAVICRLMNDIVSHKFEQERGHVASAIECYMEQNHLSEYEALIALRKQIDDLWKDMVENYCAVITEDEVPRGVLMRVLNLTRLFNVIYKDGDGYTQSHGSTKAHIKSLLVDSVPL

`CC(C)=CCC/C(C)=C/COP(=O)(O)OP(=O)(O)O` [GPP]: the “product formation, stir-bar GC-MS, recombinant E. coli protein” value (shortened to “product formation, stir-bar GC-MS”) in experiment [1] is “CsTPS19 which efficiently catalysed the formation of (E)‐β‐ocimene, myrcene and linalool from GPP”; in experiment [2] it was “CsTPS11 and CsTPS15 both catalysed the formation of myrcene, limonene”; in experiment [3] it was “CsTPS11 and CsTPS15 both catalysed the formation of myrcene, limonene”.

As for `CC(C)=CCC/C(C)=C/CC/C(C)=C/COP(=O)(O)OP(=O)(O)O` [FPP], the “product formation, stir-bar GC-MS” value in experiment [4] was “CsTPS12, CsTPS14 and CsTPS17, which all catalysed the formation of (E)‐β‐farnesene”; in experiment [1] it was “CsTPS19 predominantly catalysed the formation of (E,E)‐α‐farnesene from FPP”; in experiment [5] it was “the major products of CsTPS22 were (E)‐nerolidol and cadinol”; in experiment [6], “CsTPS12, CsTPS14 and CsTPS17, which all catalysed the formation of (E)‐β‐farnesene”; in experiment [7] (10 µM substrate) it was “both enzymes produced (E)‐nerolidol from FPP”.

`CC(C)=CCC/C(C)=C/CC/C(C)=C/CC/C(C)=C/COP(=O)(O)OP(=O)(O)O` [GGPP]: the “product formation, stir-bar GC-MS” value in experiment [7] is “only CsTPS24 accepted GGPP to produce geranyl linalool”.
